According to patent publication US9932340B2, “Substituted indoles” (AbbVie Inc., priority 2014, dated 2018):

target: SUV420H1 enzyme (Homo sapiens, UniProt Q4FZB7); assay: TR-FRET SAH SUV420H1 enzyme inhibition assay; type: biochemical; conditions: Histone Peptide H4(8-30)me1 and SAM, overnight at room temp, TR-FRET detection of SAH, read-out: TR-FRET SAH_SUV420H1 IC50
How it was run: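 SUV420H1 (90 nM) preincubated 30 min with compound (3-fold dilutions, 50 to 0.00075 μM), then H4(8-30)me1 peptide 5 nM and SAM 4 nM added, overnight at room temp. SAH product detected by TR-FRET with Tb anti-SAH antibody and Oregon Green-SAH in RIPA buffer, 4 h; IC50 from Hill fit, asymptotes fixed 0-100%.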

SUV420H1 enzyme, sequence (Q4FZB7 whole entry): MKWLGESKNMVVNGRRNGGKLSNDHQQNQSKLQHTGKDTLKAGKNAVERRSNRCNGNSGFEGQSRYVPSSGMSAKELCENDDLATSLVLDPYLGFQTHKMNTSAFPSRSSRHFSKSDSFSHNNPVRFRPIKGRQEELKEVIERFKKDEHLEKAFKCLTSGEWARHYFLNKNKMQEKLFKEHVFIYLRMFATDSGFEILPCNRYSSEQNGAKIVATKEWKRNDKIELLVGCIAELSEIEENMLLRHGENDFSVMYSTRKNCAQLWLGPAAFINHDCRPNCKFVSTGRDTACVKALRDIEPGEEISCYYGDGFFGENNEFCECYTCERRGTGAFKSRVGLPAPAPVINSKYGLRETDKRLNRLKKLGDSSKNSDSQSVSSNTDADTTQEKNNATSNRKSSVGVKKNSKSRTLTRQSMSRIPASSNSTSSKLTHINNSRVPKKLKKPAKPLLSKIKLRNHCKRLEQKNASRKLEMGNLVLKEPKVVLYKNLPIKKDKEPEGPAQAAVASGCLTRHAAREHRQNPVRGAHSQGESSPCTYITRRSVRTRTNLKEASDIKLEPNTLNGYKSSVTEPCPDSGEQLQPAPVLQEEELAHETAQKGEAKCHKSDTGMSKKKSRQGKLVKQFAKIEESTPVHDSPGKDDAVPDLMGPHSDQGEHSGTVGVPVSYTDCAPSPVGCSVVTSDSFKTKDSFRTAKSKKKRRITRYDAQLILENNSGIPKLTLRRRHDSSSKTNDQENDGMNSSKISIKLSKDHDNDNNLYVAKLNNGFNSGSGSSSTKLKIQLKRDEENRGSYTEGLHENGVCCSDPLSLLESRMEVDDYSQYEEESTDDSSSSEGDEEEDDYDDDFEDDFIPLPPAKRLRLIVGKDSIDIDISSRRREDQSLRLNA

SMILES | IC50 [nM]
Cc1scnc1C(=O)NCc1cc2cc(Cl)cc(Cn3cnc4c(N)ncnc43)c2[nH]1 [Example 147, N-({7-[(6-amino-9H-purin-9-yl)methyl]-5-chloro-1H-indol-2-yl}methyl)-5-methyl-1,3-thiazole-4-carboxamide] | 5790
CC(C)CCC(=O)NCc1cc2cc(Cl)cc(Cn3cnc4c(N)ncnc43)c2[nH]1 [Example 105, N-({7-[(6-amino-9H-purin-9-yl)methyl]-5-chloro-1H-indol-2-yl}methyl)-4-methylpentanamide] | 8170
Nc1ncnc2c1ncn2Cc1cccc2cc[nH]c12 [Example 5, 9-(1H-indol-7-ylmethyl)-9H-purin-6-amine] | 13900
Nc1ncnc2c1ncn2Cc1cc(Cl)cc2cc(CNC(=O)C3CCCCC3)[nH]c12 [Example 128, N-({7-[(6-amino-9H-purin-9-yl)methyl]-5-chloro-1H-indol-2-yl}methyl)cyclohexanecarboxamide] | 3340
Nc1ncnc2c1ncn2Cc1cc(Cl)cc2cc(CNC(=O)c3ccc4ocnc4c3)[nH]c12 [Example 339, N-({7-[(6-amino-9H-purin-9-yl)methyl]-5-chloro-1H-indol-2-yl}methyl)-1,3-benzoxazole-5-carboxamide] | 6870
Nc1ncnc2c1ncn2Cc1cc(Cl)cc2cc(CNC(=O)c3cnc4[nH]ccc4c3)[nH]c12 [Example 347, N-({7-[(6-amino-9H-purin-9-yl)methyl]-5-chloro-1H-indol-2-yl}methyl)-1H-pyrrolo[2,3-b]pyridine-5-carboxamide] | 29100
Nc1ncnc2c1ncn2Cc1cc(Cl)cc2cc(CNC(=O)c3ccccc3C(=O)N3CCCCC3)[nH]c12 [Example 324, N-({7-[(6-amino-9H-purin-9-yl)methyl]-5-chloro-1H-indol-2-yl}methyl)-2-(piperidin-1-ylcarbonyl)benzamide] | 12500
Nc1ncnc2c1ncn2Cc1cc(Cl)cc2cc(CNC(=O)c3ccn[nH]3)[nH]c12 [Example 142, N-({7-[(6-amino-9H-purin-9-yl)methyl]-5-chloro-1H-indol-2-yl}methyl)-1H-pyrazole-5-carboxamide] | 9480
Cn1nc(C(=O)NCc2cc3cc(Cl)cc(Cn4cnc5c(N)ncnc54)c3[nH]2)c2c1CCC2 [Example 191, N-({7-[(6-amino-9H-purin-9-yl)methyl]-5-chloro-1H-indol-2-yl}methyl)-1-methyl-1,4,5,6-tetrahydrocyclopenta[c]pyrazole-3-carboxamide] | 2980
Nc1ncnc2c1ncn2Cc1cc(Cl)cc2cc(CNCc3cc(F)cc(Cl)c3)[nH]c12 [Example 216, 9-[(5-chloro-2-{[(3-chloro-5-fluorobenzyl)amino]methyl}-1H-indol-7-yl)methyl]-9H-purin-6-amine] | 2470
Nc1ncnc2c1ncn2Cc1cc(Cl)cc2cc(CNC(=O)Cc3ccncc3)[nH]c12 [Example 232, N-({7-[(6-amino-9H-purin-9-yl)methyl]-5-chloro-1H-indol-2-yl}methyl)-2-(pyridin-4-yl)acetamide] | 1980
Nc1ncnc2c1ncn2Cc1cccc2c(Br)c[nH]c12 [Example 1, 9-[(3-bromo-1H-indol-7-yl)methyl]-9H-purin-6-amine] | > 50000
CS(=O)(=O)c1ccccc1C(=O)NCc1cc2cc(Cl)cc(Cn3cnc4c(N)ncnc43)c2[nH]1 [Example 265, N-({7-[(6-amino-9H-purin-9-yl)methyl]-5-chloro-1H-indol-2-yl}methyl)-2-(methylsulfonyl)benzamide] | 2140
Nc1ncnc2c1ncn2Cc1cc(Cl)cc2cc(CNC(=O)CCN3CCCC3)[nH]c12 [Example 122, N-({7-[(6-amino-9H-purin-9-yl)methyl]-5-chloro-1H-indol-2-yl}methyl)-3-(pyrrolidin-1-yl)propanamide] | 4770
Nc1ncnc2c1ncn2Cc1cc(Cl)cc2cc(CNC(=O)c3c(O)cccc3F)[nH]c12 [Example 229, N-({7-[(6-amino-9H-purin-9-yl)methyl]-5-chloro-1H-indol-2-yl}methyl)-2-fluoro-6-hydroxybenzamide] | > 50000
Nc1ncnc2c1ncn2Cc1cc(Cl)cc2cc(CNC(=O)c3cnc4[nH]ccc4c3Cl)[nH]c12 [Example 348, N-({7-[(6-amino-9H-purin-9-yl)methyl]-5-chloro-1H-indol-2-yl}methyl)-4-chloro-1H-pyrrolo[2,3-b]pyridine-5-carboxamide] | 7270
N#Cc1ccccc1C(=O)NCc1cc2cc(Cl)cc(Cn3cnc4c(N)ncnc43)c2[nH]1 [Example 274, N-({7-[(6-amino-9H-purin-9-yl)methyl]-5-chloro-1H-indol-2-yl}methyl)-2-cyanobenzamide] | 11300
Cc1onc(-c2ccccc2)c1C(=O)NCc1cc2cc(Cl)cc(Cn3cnc4c(N)ncnc43)c2[nH]1 [Example 326, N-({7-[(6-amino-9H-purin-9-yl)methyl]-5-chloro-1H-indol-2-yl}methyl)-5-methyl-3-phenyl-1,2-oxazole-4-carboxamide] | 6200
CC1(C(=O)NCc2cc3cc(Cl)cc(Cn4cnc5c(N)ncnc54)c3[nH]2)CCCCC1 [Example 129, N-({7-[(6-amino-9H-purin-9-yl)methyl]-5-chloro-1H-indol-2-yl}methyl)-1-methylcyclohexanecarboxamide] | 28400

Compounds with a lower IC50, results first:

IC50 [nM] | SMILES
1870 | C=Cc1cc(Cn2cnc3c(N)ncnc32)c2[nH]c(CN)cc2c1 [Example 10, 9-{[2-(aminomethyl)-5-ethenyl-1H-indol-7-yl]methyl}-9H-purin-6-amine]
1810 | NCc1cc2c(-c3ccccc3Cl)ccc(Cn3cnc4c(N)ncnc43)c2[nH]1 [Example 72, 9-{[2-(aminomethyl)-4-(2-chlorophenyl)-1H-indol-7-yl]methyl}-9H-purin-6-amine]
1640 | Nc1ncnc2c1ncn2Cc1cc(Cl)cc2cc(CNC(=O)c3cncs3)[nH]c12 [Example 138, N-({7-[(6-amino-9H-purin-9-yl)methyl]-5-chloro-1H-indol-2-yl}methyl)-1,3-thiazole-5-carboxamide]
1330 | CN(C)C(=O)c1cccc(-c2cc(Cn3cnc4c(N)ncnc43)c3[nH]c(CN)cc3c2)c1 [Example 48, 3-{2-(aminomethyl)-7-[(6-amino-9H-purin-9-yl)methyl]-1H-indol-5-yl}-N,N-dimethylbenzamide]
972 | Cn1cc(-c2ccc(Cn3cnc4c(N)ncnc43)c3[nH]c(CN)cc23)cn1 [Example 68, 9-{[2-(aminomethyl)-4-(1-methyl-1H-pyrazol-4-yl)-1H-indol-7-yl]methyl}-9H-purin-6-amine]
548 | COc1cccc(-c2ccc(Cn3cnc4c(N)ncnc43)c3[nH]c(CN)cc23)c1 [Example 79, 9-{[2-(aminomethyl)-4-(3-methoxyphenyl)-1H-indol-7-yl]methyl}-9H-purin-6-amine]
457 | NCc1cc2cc(-c3ccc4c(c3)CCO4)cc(Cn3cnc4c(N)ncnc43)c2[nH]1 [Example 57, 9-{[2-(aminomethyl)-5-(2,3-dihydro-1-benzofuran-5-yl)-1H-indol-7-yl]methyl}-9H-purin-6-amine]
401 | Nc1ncnc2c1ncn2Cc1cc(Cl)cc2cc(CNC(=O)c3ccc4ncsc4c3)[nH]c12 [Example 335, N-({7-[(6-amino-9H-purin-9-yl)methyl]-5-chloro-1H-indol-2-yl}methyl)-1,3-benzothiazole-6-carboxamide]
263 | CCc1noc(C)c1C(=O)NCc1cc2cc(Cl)cc(Cn3cnc4c(N)ncnc43)c2[nH]1 [Example 186, N-({7-[(6-amino-9H-purin-9-yl)methyl]-5-chloro-1H-indol-2-yl}methyl)-3-ethyl-5-methyl-1,2-oxazole-4-carboxamide]
261 | Cc1[nH]c2cc(C(=O)NCc3cc4cc(Cl)cc(Cn5cnc6c(N)ncnc65)c4[nH]3)ccc2c1C [Example 374, N-({7-[(6-amino-9H-purin-9-yl)methyl]-5-chloro-1H-indol-2-yl}methyl)-2,3-dimethyl-1H-indole-6-carboxamide]
154 | CC(=O)N1CC=C(c2cc(Cn3cnc4c(N)ncnc43)c3[nH]c(CN)cc3c2)CC1 [Example 15, 1-[4-{2-(aminomethyl)-7-[(6-amino-9H-purin-9-yl)methyl]-1H-indol-5-yl}-3,6-dihydropyridin-1(2H)-yl]ethanone]
127 | Cc1noc(C)c1C(=O)NCc1cc2cc(C3=CCCNC3)cc(Cn3cnc4c(N)ncnc43)c2[nH]1 [Example 163, N-({7-[(6-amino-9H-purin-9-yl)methyl]-5-(1,2,5,6-tetrahydropyridin-3-yl)-1H-indol-2-yl}methyl)-3,5-dimethyl-1,2-oxazole-4-carboxamide]
116 | Cc1noc(C)c1C(=O)NCc1cc2cc(-c3cccc(C(=O)NC4CC4)c3)cc(Cn3cnc4c(N)ncnc43)c2[nH]1 [Example 178, N-({7-[(6-amino-9H-purin-9-yl)methyl]-5-[3-(cyclopropylcarbamoyl)phenyl]-1H-indol-2-yl}methyl)-3,5-dimethyl-1,2-oxazole-4-carboxamide]
90.8 | N#Cc1ccc(C(=O)NCc2cc3cc(Cl)cc(Cn4cnc5c(N)ncnc54)c3[nH]2)c(F)c1 [Example 284, N-({7-[(6-amino-9H-purin-9-yl)methyl]-5-chloro-1H-indol-2-yl}methyl)-4-cyano-2-fluorobenzamide]
60.6 | Cc1cc(C(=O)NCc2cc3cc(Cl)cc(Cn4cnc5c(N)ncnc54)c3[nH]2)c(C)nn1 [Example 234, N-({7-[(6-amino-9H-purin-9-yl)methyl]-5-chloro-1H-indol-2-yl}methyl)-3,6-dimethylpyridazine-4-carboxamide]
41.9 | CC(=O)N1CCC=C(c2cc(Cn3cnc4c(N)ncnc43)c3[nH]c(CNC(=O)c4ccc(C#N)cc4Cl)cc3c2)C1 [Example 280]
41.2 | Cc1noc(C)c1C(=O)NCc1cc2cc(-c3cccc(C(N)=O)c3)cc(Cn3cnc4c(N)ncnc43)c2[nH]1 [Example 173, N-({7-[(6-amino-9H-purin-9-yl)methyl]-5-(3-carbamoylphenyl)-1H-indol-2-yl}methyl)-3,5-dimethyl-1,2-oxazole-4-carboxamide]
